Measurements from publication PMC12314051, “Design, antiproliferative potency, and in silico studies of novel 5-methylfuran-3-yl)thio)-3-phenylquinazolin-4(3H)-one based derivatives as potential EGFR inhibitors” (Scientific Reports, 2025).
Values joined by “and” are separate entries in the source; they are usually repeats but may differ in a detail not shown here. Identical values can stand only once. Like-named read-outs stand apart in the source and are kept apart here.

Columns and labels:
HepG-2 cells = assay: MTT cytotoxicity assay, HepG-2; format: cell-based; details: Homo sapiens, HepG2; HepG-2, MTT assay; read-out: IC50 (mean ± SD)
Description: (§1) Following the published protocol[75]–[77], the cytotoxic effects of the newly synthesized quinazolinones 1–10 were assessed in vitro using the MTT test method on human liver HepG-2, breast MCF-7, colorectal HCT-116 cancer cell lines, and normal diploid cell line WI-38. There were further details in the supplemetary file.
(§2) The cell lines were obtained from Karolinska Center, Department of Oncology and Pathology, Karolinska Institute and Hospital, Stockholm, Sweden, as follows: human liver HepG-2, breast MCF-7, and colorectal HCT-116 cancer cell lines and human diploid cell line WI-38. Exponentially, cells were placed in 10^4 cells/ well for 24 h, and then fresh medium containing different concentrations of the tested sample. two-fold serial dilution of the tested sample was added using a multichannel pipette. Moreover, all cells were cultivated at 37 °C, 5% CO2 and 95% humidity. Also, incubation of control cells occurred at 37 °C. However, after incubation for 24 h different concentrations of the sample (100, 50, 25, 12.5, 6.25, 3.125, and 1.56 µM) were added, and continued the incubation for 48 h, then, add the crystal violet solution of 1% to each well for 0.5 h to examine viable cells. Rinse the wells using water until no stain. After that, add 30% glacial acetic acid to all wells with shaking plates on a Microplate reader (TECAN, Inc.) to measure the absorbance, using a test wavelength of 490 nm. Besides, compare the treated samples with the control cell. The cytotoxicity was estimated by IC50 in (μM), the concentration that inhibits 50% of growth of cancer cell.

HCT-116 cells = assay: MTT cytotoxicity assay, HCT-116; format: cell-based; details: Homo sapiens; HCT-116, MTT assay; read-out: IC50 (mean ± SD)
Description: as §1, §2

MCF-7 cells [1] = assay: MTT cytotoxicity assay, MCF-7; format: cell-based; details: Homo sapiens, MCF7; MCF-7, MTT assay; read-out: IC50 (mean ± SD)
Description: as §1, §2

WI-38 cells = assay: MTT cytotoxicity assay, normal WI-38; format: cell-based; details: Homo sapiens; normal WI-38, MTT assay; read-out: IC50 (mean ± SD)
Description: . […]. Furthermore, the MTT assay was employed to examine the safety profiles of the cytotoxic activity against the normal human diploid cell line WI-38 (Table 1). […]. They could therefore be considered safe chemotherapeutic agents.
as §1, §2

[2] = system: HepG-2, HCT-116 and MCF-7 cell lines; assay: MTT cytotoxicity, all screened cancer cell lines together (SAR summary); format: cell-based, human
Description: […]. In addition, replacement of acetyl group in 2 with pyrazoline moiety with free N-1 in 7 or bound to thiazole in 9, yielded weak activity.
as §1, §2

EGFR = target: T1, EGFR (Homo sapiens, UniProt P00533); assay: In vitro EGFR inhibition assay; format: biochemical; details: for IC50: EGFR, read-out: IC50 (mean ± SD); for selectivity EGFR over VEGFR-2: EGFR versus VEGFR-2
T1 construct: purchased Abcam
T1 sequence (P00533 25-1210): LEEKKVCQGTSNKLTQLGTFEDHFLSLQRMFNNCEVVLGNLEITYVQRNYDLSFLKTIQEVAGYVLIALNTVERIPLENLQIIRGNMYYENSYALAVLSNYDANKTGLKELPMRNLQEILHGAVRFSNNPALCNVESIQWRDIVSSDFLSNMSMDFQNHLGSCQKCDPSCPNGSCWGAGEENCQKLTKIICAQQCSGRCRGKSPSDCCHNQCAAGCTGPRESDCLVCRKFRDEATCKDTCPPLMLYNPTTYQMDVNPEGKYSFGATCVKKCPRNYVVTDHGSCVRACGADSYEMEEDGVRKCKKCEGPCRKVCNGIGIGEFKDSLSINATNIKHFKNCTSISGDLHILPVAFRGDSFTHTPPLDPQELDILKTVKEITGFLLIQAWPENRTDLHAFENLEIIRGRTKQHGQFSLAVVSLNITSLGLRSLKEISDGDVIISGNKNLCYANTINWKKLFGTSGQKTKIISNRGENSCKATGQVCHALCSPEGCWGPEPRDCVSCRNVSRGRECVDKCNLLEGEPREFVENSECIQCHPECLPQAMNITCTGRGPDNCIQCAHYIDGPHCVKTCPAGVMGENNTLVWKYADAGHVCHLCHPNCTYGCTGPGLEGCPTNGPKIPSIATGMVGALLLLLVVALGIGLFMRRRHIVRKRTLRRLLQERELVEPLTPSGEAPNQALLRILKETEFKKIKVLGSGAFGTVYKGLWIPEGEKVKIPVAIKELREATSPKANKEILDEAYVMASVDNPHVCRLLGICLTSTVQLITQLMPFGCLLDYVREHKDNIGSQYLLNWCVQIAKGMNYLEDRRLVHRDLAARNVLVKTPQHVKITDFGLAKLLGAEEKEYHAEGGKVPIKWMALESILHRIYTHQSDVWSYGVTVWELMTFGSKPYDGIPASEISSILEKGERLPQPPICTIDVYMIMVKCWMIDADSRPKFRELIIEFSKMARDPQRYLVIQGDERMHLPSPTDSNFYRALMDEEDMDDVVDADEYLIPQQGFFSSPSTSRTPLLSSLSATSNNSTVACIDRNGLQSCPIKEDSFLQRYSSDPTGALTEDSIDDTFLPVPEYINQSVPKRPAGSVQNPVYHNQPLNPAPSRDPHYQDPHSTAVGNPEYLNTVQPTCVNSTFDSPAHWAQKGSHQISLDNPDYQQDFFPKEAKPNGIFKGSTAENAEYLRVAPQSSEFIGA

VEGFR-2 = target: T2, VEGFR-2 (Homo sapiens, UniProt P35968); assay: In vitro VEGFR-2 inhibition assay (ELISA kit); format: biochemical; details: read-out: IC50 (mean ± SD)
T2 construct: purchased Ray Biotech
T2 sequence (P35968 20-1356): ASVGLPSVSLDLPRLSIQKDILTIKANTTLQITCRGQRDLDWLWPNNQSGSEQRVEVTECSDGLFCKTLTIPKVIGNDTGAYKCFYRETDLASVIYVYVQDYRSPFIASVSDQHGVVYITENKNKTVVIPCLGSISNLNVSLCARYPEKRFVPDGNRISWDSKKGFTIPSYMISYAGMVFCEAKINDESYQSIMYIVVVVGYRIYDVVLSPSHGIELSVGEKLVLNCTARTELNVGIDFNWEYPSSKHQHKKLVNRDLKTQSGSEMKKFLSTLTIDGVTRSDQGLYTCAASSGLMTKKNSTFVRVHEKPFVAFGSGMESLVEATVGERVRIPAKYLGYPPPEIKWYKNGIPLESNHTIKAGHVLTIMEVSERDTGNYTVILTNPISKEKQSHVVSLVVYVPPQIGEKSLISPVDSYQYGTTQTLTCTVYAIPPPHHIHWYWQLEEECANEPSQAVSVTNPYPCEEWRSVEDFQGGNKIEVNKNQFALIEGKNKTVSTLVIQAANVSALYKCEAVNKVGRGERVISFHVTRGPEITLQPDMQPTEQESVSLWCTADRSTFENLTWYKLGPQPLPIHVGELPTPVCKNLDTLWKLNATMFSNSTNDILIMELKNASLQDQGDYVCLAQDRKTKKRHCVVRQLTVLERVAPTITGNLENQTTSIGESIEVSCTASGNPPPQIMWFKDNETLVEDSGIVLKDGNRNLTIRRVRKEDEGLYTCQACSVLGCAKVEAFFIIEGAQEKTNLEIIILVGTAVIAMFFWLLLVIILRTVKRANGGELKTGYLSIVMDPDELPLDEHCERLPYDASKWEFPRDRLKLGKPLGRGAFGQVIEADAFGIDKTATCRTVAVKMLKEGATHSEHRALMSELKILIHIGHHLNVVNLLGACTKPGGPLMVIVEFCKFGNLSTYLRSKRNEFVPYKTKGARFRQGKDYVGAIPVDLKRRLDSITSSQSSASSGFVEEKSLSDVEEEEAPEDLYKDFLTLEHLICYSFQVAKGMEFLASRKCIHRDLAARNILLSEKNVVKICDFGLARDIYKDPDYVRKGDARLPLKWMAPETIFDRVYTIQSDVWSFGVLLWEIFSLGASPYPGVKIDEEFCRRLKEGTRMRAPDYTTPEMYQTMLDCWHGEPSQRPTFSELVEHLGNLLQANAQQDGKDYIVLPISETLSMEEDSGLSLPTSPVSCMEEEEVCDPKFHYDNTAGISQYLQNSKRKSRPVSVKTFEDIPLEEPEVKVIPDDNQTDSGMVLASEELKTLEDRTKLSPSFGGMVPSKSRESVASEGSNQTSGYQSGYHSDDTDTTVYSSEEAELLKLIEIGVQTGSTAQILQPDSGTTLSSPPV
Description: Quinazolinone-based targets 1, 6b, 8a, and 10 were chosen for further evaluation of their in vitro inhibitory activity against EGFR and VEGFR-2 because of their exceptional cytotoxic outcomes, with the goal of clarifying their mode of action. […]. VEGFR-2 assay: the effect of the most promising cytotoxic compounds 1, 6b, 8a, and 10 was evaluated for their in vitro inhibitory activity against Human VEGFR-2 using ELISA kit according to manufacturer's instructions (Ray Biotech). This assay employs an antibody specific for human VEGFR-2 coated on a 96-well plate. Samples and standards were added to the wells and incubated over night at 4 °C with gentle shaking. The wells were washed and biotinylated antibody was added followed by incubation for one hour at room temperature. After washing away unbound biotinylated antibody, HRP conjugated streptavidin was pipetted to the wells and
incubated at room temperature for 45 min. The wells were then washed; TMB substrate solution was added and incubated for 30 min. The color developed was in proportion to the amount of VEGFR-2 bound. The Stop Solution was added and the intensity of the color was measured at 450 nm. Percent inhibition was calculated by the comparison of compounds treated to control incubations. […]

MCF-7 cells [3] = assay: Cell cycle analysis by flow cytometry (PI); format: cell-based, human; details: MCF-7, 3.91 μM, 24 h
Description: (§3) The treated cells were subsequently analyzed using flow cytometry and annexin-V labeling (Fig. 4, 5, 6).
(§4) Using flow cytometry, the investigation of cell cycle analysis and apoptosis was described[79],[81]. After applying quinazolinone-furan-benzo[b][1,4]diazepine 6b to MCF-7 cells for 24 h, the cells were incubated at 37 °C. The supplemental file contained more information.
(§5) Cell cycle analysis and apoptosis study were carried out using ab139418–Propidium Iodide Flow Cytometry Kit for Cell Cycle Analysis. MCF-7 cells were seeded at 8×10^4 and incubated at 37°C in 5% CO2 overnight. After treatment with the tested compound 10 for 24 h, cell pellets were collected and centrifuged (300 g, 5 min). For cell cycle analysis, cell pellets were fixed with 70% ethanol on ice for 15 min and collected again. The pellets were incubated with propidium iodide (PI) staining solution at room temperature for 1 h and analyzed by a Gallios flow cytometer (Beckman Coulter, Brea, CA, USA). Apoptosis detection was carried out by FITC AnnexinV/PI commercial kit (Becton Dickenson, Franklin Lakes, NJ, USA) following the manufacturer protocol. The samples were analyzed by fluorescence-activated cell sorting (FACS) with a Gallios flow cytometer (Beckman Coulter, Brea, CA, USA) within 1 h after staining. Data were analyzed using Kaluza v 1.2 (Beckman Coulter).

MCF-7 cells [4] = assay: Apoptosis detection, annexin V-FITC/PI flow cytometry; format: cell-based, human
Description: as §3, §4, §5

Bax = Bax level in MCF-7 cells; format: cell-based, human; details: MCF-7, 3.91 μM, 24 h
Source text: (§6) The extrinsic pathway, which is controlled by the death receptor, and the intrinsic pathway, which is handled by the mitochondria, are the two primary mechanisms that govern the cell during apoptosis. The two proteins Bcl-2 and Bax can alter this planned process due to their respective roles as […] (inducer), and the balance between them adjusts cell death. A further vital component that either causes cell death or prevents cell proliferation is the tumor suppressor gene, p53. […] Furthermore, compound 6b increased the amount of p53 protein in MCF-7 treated cells by 7.2 times, while control cells only had 119.65 Pg/mL (Table 3).
(§7) For the promising quinazolinone-furan-benzo[b][1,4]diazepine 6b, the Bax, Bcl-2, and p53 levels in MCF-7 cells were elucidated using the previously disclosed method.
The magnitudes of the apoptotic proteins; BAX and Bcl-2 were evaluated using BIORAD iScript TM One-Step RT-PCR kit with SYBR®Green (BIO-RAD Laboratories, Hercules, CA, US). The method of the applied kit was conducted according to the manufacturer’s protocol and previously reported method. First, mRNA isolation is done using RNeasy extraction kit, up to 1 × 10^7 cells, depending on the cell line. Then Cells were exposed to RNeasy Lysis Buffer (RLT buffer) and homogenized, while ethanol was then supplemented to the mixture to allow selective binding of RNA to the RNeasy membrane. Afterwards, the sample was loaded to the RNeasy mini spin column where total RNA was bound to the membrane while contaminants competently passed through, and high-quality RNA was eluted in RNase-free water. Then, the reaction mixture was incubated in a real-time thermal detection system (Rotorgene) as follows: cDNA synthesis: 10 min at 50 ◦C, iScript reverse transcriptase inactivation: 5 min at 95 ◦C, polymerase chain reaction (PCR) cycling and detection (30–45 cycles): 10s at 95 ^◦C and 30 s at 55 ^◦C to 60 ^◦C (data collection step) and melt curve analysis: 1 min at 95 ◦C and 1 min at 55 ^◦C and 10s at 55 ^◦C (80 cycles, increasing each by 0.5 ^◦C each cycle).

Bcl-2 = Bcl-2 level in MCF-7 cells; format: cell-based, human; details: MCF-7, 3.91 μM, 24 h
Source text: as §6, §7
The magnitudes of the apoptotic proteins; BAX and Bcl-2 were evaluated using BIORAD iScript TM One-Step RT-PCR kit with SYBR®Green (BIO-RAD Laboratories, Hercules, CA, US). The method of the applied kit was conducted according to the manufacturer’s protocol and previously reported method. First, mRNA isolation is done using RNeasy extraction kit, up to 1 × 10^7 cells, depending on the cell line. Then Cells were exposed to RNeasy Lysis Buffer (RLT buffer) and homogenized, while ethanol was then supplemented to the mixture to allow selective binding of RNA to the RNeasy membrane. […]

p53 = p53 level in MCF-7 cells (ELISA); format: cell-based, human; details: MCF-7, 3.91 μM, 24 h
Source text: as §6, §7
Human p53 present in MCF-7 cells was determined; using Human p53 ELISA-Kit (CS0070 Sigma) read using spectrophotometer at 450 nm against untreated control cells (negative control) applying the standard protocols of the manufacturers. The samples or standard having human p53 bind to antibodies adsorbed to the microwells. Addition of biotin-conjugated was followed by incubation and addition of dispense of unbound biotin-conjugated streptavidin HRP. Then, the reaction was terminated by adding acid, and the absorbance was measured at 450 nm.

[5] = HepG-2, HCT-116 and MCF-7 cell lines

| IC50 (EGFR) [µM] | IC50 (VEGFR-2) [µM] | SMILES | IC50 (HepG-2 cells) [µM] | IC50 (HCT-116 cells) [µM] | IC50 (MCF-7 cells [1]) [µM] | IC50 (WI-38 cells) [µM] | cytotoxic activity in words (SAR study) [2, 5] | selectivity EGFR over VEGFR-2 (EGFR) | also measured |
| --- | --- | --- | --- | --- | --- | --- | --- | --- | --- |
| 0.19 ± 0.03 | 31.6 ± 1.48 | Cc1occ(Sc2nc3ccccc3c(=O)n2-c2ccccc2)c1C1CC(c2ccco2)Nc2ccccc2N1 (centres unmarked) [Compound 6b, 2-((4-(4-(Furan-2-yl)-2,3,4,5-tetrahydro-1H-benzo[b][1,4]diazepin-2-yl)-5-methylfuran-3-yl)thio)-3-phenylquinazolin-4(3H)-one] | 5.8 ± 0.4 | 7.97 ± 0.5 | 3.91 ± 0.2 | 41.3 ± 2.5 | Excellent activity | substantially more selective for EGFR than VEGFR-2 | %G0-G1 (MCF-7 cells [3]): 46.68%; %G2/M (MCF-7 cells [3]): 35.29%; %S (MCF-7 cells [3]): 18.03%; Apoptosis Early (MCF-7 cells [4]; MCF-7, 3.91 μM, 24 h): 8.92%; Apoptosis Late (MCF-7 cells [4]; MCF-7, 3.91 μM, 24 h): 15.39%; Apoptosis Total (MCF-7 cells [4]; MCF-7, 3.91 μM, 24 h): 29.76; Necrosis (MCF-7 cells [4]; MCF-7, 3.91 μM, 24 h): 5.45%; apoptosis in MCF-7 cells as stated in abstract and conclusion (MCF-7 cells [4]; MCF-7, flow cytometry): 35.29%; Bax (Bax): 241.60 pg/mL and 241.6 ± 1.33 pg/mL; Bax/Bcl-2 (Bax): 85.67; rise in Bax levels versus untreated control (Bax): 6.3 fold; Bcl-2 (Bcl-2): 2.82 ng/mL and 2.82 ± 0.11 ng/mL; Bcl-2 protein downregulated versus control (Bcl-2): 2.6 times; P53 (p53): 860.55 ± 2.47 pg/mL; increase of p53 protein versus control (p53): 7.2 times |
| 8.53 ± 0.25 | 46.2 ± 1.2 | Cc1occ(Sc2nc3ccccc3c(=O)n2-c2ccccc2)c1C1=NN(C(N)=S)C(c2ccc(Cl)cc2)C1 (centres unmarked) [Compound 8a, 5-(4-Chlorophenyl)-3-{2-methyl-4-[(4-oxo-3-phenyl-3,4-dihydroquinazolin-2-yl)thio]furan-3-yl}-4,5-dihydro-1H-pyrazole-1-carbothioamide] | 9.68 ± 0.8 | 57.1 ± 3.3 | 8.29 ± 0.6 | 63.2 ± 3.3 | Excellent activity | – | – |
| – | – | Cc1occ(Sc2nc3ccccc3c(=O)n2-c2ccccc2)c1C1=NN(c2nc(Cl)cs2)C(c2ccc(Cl)cc2)C1 (centres unmarked) [Compound 9, 2-{{{4-[5-(4-Chlorophenyl)-1-(4-chlorothiazol-2-yl)-4,5-dihydro-1H-pyrazol-3-yl]-5-methylfuran-3-yl}thio}}-3-phenylquinazolin-4(3H)-one] | 44 ± 2.5 | 74.7 ± 3.9 | 58 ± 3.4 | 39.8 ± 2.4 | weak activity | – | – |
| 0.51 ± 0.04 | 39.4 ± 1.35 | Cc1occ(Sc2nc3ccccc3c(=O)n2-c2ccccc2)c1C1=NN(C(=S)N=Cc2ccc(C=O)s2)C(c2ccc(F)cc2)C1 (centres unmarked) [Compound 10, 5-(4-Fluorophenyl)-N-[(5-formylthiophen-2-yl)methylene]-3-(2-methyl-4-{[4-oxo-3-phenyl-3,4-dihydroquinazolin-2-yl)thio]furan-3-yl}-4,5-dihydro-1H-pyrazole-1-carbothioamide] | 8.71 ± 0.7 | 11.6 ± 0.9 | 6.49 ± 0.4 | 35.2 ± 2.2 | Excellent activity | substantially more selective for EGFR than VEGFR-2 | – |

| SMILES | IC50 (EGFR) [µM] | IC50 (VEGFR-2) [µM] | IC50 (HepG-2 cells) [µM] | IC50 (HCT-116 cells) [µM] | IC50 (MCF-7 cells [1]) [µM] | IC50 (WI-38 cells) [µM] | cytotoxic activity in words (SAR study) [2, 5] | selectivity EGFR over VEGFR-2 (EGFR) | also measured |
| --- | --- | --- | --- | --- | --- | --- | --- | --- | --- |
| O=C(CCl)Sc1nc2ccccc2c(=O)n1-c1ccccc1 [Compound 1, S-(4-Oxo-3-phenyl-3,4-dihydroquinazolin-2-yl) 2-chloroethanethioate] | 25.5 ± 1.2 | 70.2 ± 2.55 | 13.2 ± 1.1 | 19.6 ± 1.4 | 10.6 ± 0.9 | 75.4 ± 3.8 | – | – | cytotoxic activity in words (SAR study) [2]: Moderate activity |
